From paper PMC3907537, “Evaluation of the Endothelin Receptor Antagonists Ambrisentan, Bosentan, Macitentan, and Sitaxsentan as Hepatobiliary Transporter Inhibitors and Substrates in Sandwich-Cultured Human Hepatocytes” (PLoS ONE, 2014)

Tests used:
[1] = tested on: sandwich-cultured human hepatocytes; assay: Effect of ERAs on endogenous glycochenodeoxycholic acid (GCDCA) distribution in sandwich-cultured human hepatocytes; assay type: cell-based; conditions: 24 h, mean ± standard error, n=3 human livers
Description: Sandwich-cultured human hepatocytes were obtained from Celsis/IVT (Baltimore, MD) or Life Technologies (Durham, NC). […] Hepatic uptake, biliary excretion and in vitro biliary clearance (Clb) were determined using the B-CLEAR® hepatocyte sandwich culture model as described by Liu et al., 1999 [34]. In this system, hepatocytes form functional bile canalicular networks while maintaining the expression and function of key uptake and efflux transporters. The canalicular system of bile pockets remains separate from the cellular culture media due to tight junctions between cells. The integrity of these tight junctions is maintained in the presence of calcium (Plus (+) buffer) while in the absence of calcium (Minus (−) buffer), these tight junctions open and release the contents of the canalicular network into the media.
Incubation solutions containing ERA (1, 10 and 100 µM) were prepared in cell culture medium. On the sixth day of culturing of the sandwich-cultured hepatocytes, cell culture medium was removed from the wells and incubation solutions containing the test ERAs were added to the cells. The cells were incubated with ERA solution for 24 h at 37°C. After the exposure, the incubation solutions were removed and the cells were rinsed with Plus (+) or Minus (−) buffer. The buffer solutions were then removed and the cells were incubated with fresh Plus (+) or Minus (−) buffer for 5 min at 37°C. Following this 5 minute incubation, the buffer solutions were collected and any remaining buffers were removed. The cells were then washed three times with ice-cold Plus (+) buffer and the plates were frozen at −80°C until processed for bioanalysis.
(§1) Study samples were stored in their original 24-well plates at −80°C until prepared for analysis. A volume of 500 µL of cell lysis solution (70∶30 methanol:water) containing 25 nM internal standard was added to each well and mixed for 20 min of mixing. The volume in each well was then transferred to a 96-well filter plate stacked on a Greiner deep well collection plate. The filter plate/collection plate was then centrifuged at 2000 rcf for 5 min. The filtrate was then evaporated to dryness under nitrogen. Samples were reconstituted in 200 µL of sample diluent (60∶40 methanol:10 mM ammonium acetate, native pH), sealed, and placed on a plate shaker for 15 min. These samples were then transferred to a Whatman 96-well 0.45 µm PVDF filter plate stacked on a Costar 3956 plate (HPLC injection plate), centrifuged at 2000 rcf for 2–3 min, and sealed with a silicon cap mat prior to LC-MS/MS analysis. d8-TCA standard spiking solutions were prepared in 50∶50 methanol:water. For a given lysate standard or control, 10 µL was added to each well of a previously frozen analytical plate. Standards representing 0.5–100 pmoles/well and QC’s at the LLQ and ULQ were prepared. These lysate standards and controls were then further processed as described above for unknown study samples. Prepared samples were filtered and analyzed by LC-MS/MS using a Shimadzu binary HPLC system (Columbia, MD) and tandem mass spectrometry using Thermo Electron TSQ® Quantum Discovery MAX™ (Waltham, MA) with an Ion Max ESI source operating in negative ion electrospray ionization mode. Results for unknowns and QCs were calculated using a standard curve based on an internal standard processing method.
(§2) Statistical comparisons across ERA treatments were performed using analysis of variance (ANOVA) with Fisher’s PLSD post hoc analysis (Statview 5.0, SAS Institute, Cary NC); statistical significance was considered to be P<0.05. All mass values were normalized to mg protein by taking the average protein mass in the taurocholate plate determined using a BCA protein assay (Pierce Biotechnology, Rockford, IL). Cellular accumulation determined in Minus (−) buffer (Accumulation Minus (−) Buffer) represents the total mass of analyte inside the hepatocyte at the end of the incubation time period. […]

[2] = tested on: sandwich-cultured human hepatocytes; assay: ERA effect on hepatobiliary disposition of d8-taurocholate (B-CLEAR sandwich culture); assay type: cell-based; conditions: n = 3 donors; for d8-TCA cellular accumulation (% control) / d8-TCA total accumulation (% control): 2.5 µM d8-TCA, 10 min
Description: Sandwich-cultured human hepatocytes were obtained from Celsis/IVT (Baltimore, MD) or Life Technologies (Durham, NC). Donors were male (n = 3) and female (n = 1) between the ages of 31 and 62 years old. Hepatic uptake, biliary excretion and in vitro biliary clearance (Clb) were determined using the B-CLEAR® hepatocyte sandwich culture model as described by Liu et al., 1999 [34]. In this system, hepatocytes form functional bile canalicular networks while maintaining the expression and function of key uptake and efflux transporters. The canalicular system of bile pockets remains separate from the cellular culture media due to tight junctions between cells. The integrity of these tight junctions is maintained in the presence of calcium (Plus (+) buffer) while in the absence of calcium (Minus (−) buffer), these tight junctions open and release the contents of the canalicular network into the media.
A dose solution containing 2.5 µM d8-taurocholic acid (d8-TCA) was prepared in Plus (+) Buffer. Co-incubation solutions were prepared by combining d8-TCA dose solution and ERA or rifamycin-SV. Hepatocytes were washed and then conditioned for 10 min in warm Plus (+) or Minus (−) buffer with and without ERA or rifamycin-SV. Pre-incubation solutions were then removed and replaced with dose or co-incubation solutions and incubated for 10 min at 37°C. Following this 10 minute incubation, the dose or co-incubation solutions were removed and the cells were then washed three times with ice-cold Plus (+) buffer. The plates were then frozen at −80°C until processed for bioanalysis.
as §1
as §2, with “Data calculations were performed using Microsoft Excel, 2010 with all values reported as mean ± standard deviation (SD). Statistical” for “Statistical”

| Compound | GCDCA BEI (% Control) ([1]; 1 µM) | GCDCA Cellular Accumulation (% Control) ([1]; 1 µM) | GCDCA Medium Concentration (% Control) ([1]; 1 µM) | GCDCA Total Accumulation (% Control) ([1]; 1 µM) | GCDCA BEI (% Control) ([1]; 10 µM) | GCDCA Cellular Accumulation (% Control) ([1]; 10 µM) | GCDCA Medium Concentration (% Control) ([1]; 10 µM) | GCDCA Total Accumulation (% Control) ([1]; 10 µM) | GCDCA BEI (% Control) ([1]; 100 µM) | GCDCA Cellular Accumulation (% Control) ([1]; 100 µM) | GCDCA Medium Concentration (% Control) ([1]; 100 µM) | GCDCA Total Accumulation (% Control) ([1]; 100 µM) | d8-TCA cellular accumulation (% control) ([2]; 33 µM ERA) | d8-TCA total accumulation (% control) ([2]; 33 µM ERA) | d8-TCA in vitro biliary clearance (Clb), percent of control ([2]; 33 µM ERA) | d8-TCA cellular accumulation (% control) ([2]; 100 µM ERA) | d8-TCA total accumulation (% control) ([2]; 100 µM ERA) | d8-TCA in vitro biliary clearance (Clb), percent of control ([2]; 100 µM ERA) | also measured |
| --- | --- | --- | --- | --- | --- | --- | --- | --- | --- | --- | --- | --- | --- | --- | --- | --- | --- | --- | --- |
| Cc1cc2c(cc1CC(=O)c1sccc1S(=O)(=O)Nc1onc(C)c1Cl)OCO2 [sitaxsentan] | 112.0 ± 19.8 % Control | 89.8 ± 10.8 % Control | 110.0 ± 9.2 % Control | 99.3 ± 11.0 % Control | 85.7 ± 8.4 % Control | 79.4 ± 12.4 % Control | 105.0 ± 11.9 % Control | 73.8 ± 10.5 % Control | 55.5 ± 34.3 % Control | 14.5 ± 2.7 % Control | 76.5 ± 8.3 % Control | 12.4 ± 3.0 % Control |  |  |  |  |  |  |  |
| CCCNS(=O)(=O)Nc1ncnc(OCCOc2ncc(Br)cn2)c1-c1ccc(Br)cc1 [macitentan] | 98.7 ± 14.8 % Control | 88.7 ± 0.8 % Control | 111.0 ± 9.0 % Control | 90.0 ± 4.0 % Control | 89.4 ± 14.2 % Control | 52.1 ± 2.6 % Control | 98.7 ± 10.1 % Control | 48.9 ± 0.9 % Control | 37.5 ± 21.9 % Control | 11.4 ± 3.2 % Control | 51.8 ± 7.1 % Control | 8.38 ± 1.4 % Control | 42.1±4.5% | 23.6±0.5% | 17.2±2.3% | 6.2±0.5% | 4.8±0.2% | 4.3±0.5% | d8-TCA biliary efflux (BEI), percent of control ([2]; 33 µM ERA): 72.9±8.0% |
| COC(c1ccccc1)(c1ccccc1)[C@H](Oc1nc(C)cc(C)n1)C(=O)O [ambrisentan] | 95.1 ± 16.3 % Control | 104.0 ± 3.0 % Control | 110.0 ± 7.6 % Control | 103.0 ± 8.1 % Control | 81.3 ± 11.0 % Control | 83.6 ± 11.6 % Control | 109.0 ± 16.0 % Control | 75.7 ± 8.0 % Control | 76.0 ± 38.1 % Control | 27.6 ± 3.4 % Control | 103.0 ± 2.3 % Control | 26.3 ± 5.7 % Control | 71% |  |  | 52% |  |  |  |
| COc1ccccc1Oc1c(NS(=O)(=O)c2ccc(C(C)(C)C)cc2)nc(-c2ncccn2)nc1OCCO [bosentan] | 94.5 ± 12.4 % Control | 88.0 ± 5.9 % Control | 114.0 ± 9.9 % Control | 86.8 ± 3.5 % Control | 65.7 ± 21.7 % Control | 54.8 ± 4.4 % Control | 109.0 ± 14.7 % Control | 47.2 ± 2.3 % Control | 56.8 ± 11.9 % Control | 30.3 ± 6.7 % Control | 126.0 ± 7.9 % Control | 25.4 ± 6.0 % Control |  | 62.6±6.6% | 58.7±11.4% | 44.5±3.6% | 31.7±5.9% | 27.0±9.3% | d8-TCA cellular accumulation (% control) ([2]; 11 µM ERA): 66.5±5.3%; d8-TCA total accumulation (% control) ([2]; 11 µM ERA): 68.6±1.5%; d8-TCA in vitro biliary clearance (Clb), percent of control ([2]; 11 µM ERA): 69.2±0.1%; d8-TCA biliary efflux (BEI), percent of control ([2]; 100 µM ERA): 85.2±13.9% |
